For 51 molecules, Ki, Ratio ki and Ratio Ki results are on record in ChEMBL document CHEMBL1141231, “Discovery and development of a new class of potent, selective, orally active oxytocin receptor antagonists” (J Med Chem, 2005).

Test [1] addresses T1, Oxytocin receptor (Homo sapiens, UniProt P30559).
T1 sequence (P30559 whole entry): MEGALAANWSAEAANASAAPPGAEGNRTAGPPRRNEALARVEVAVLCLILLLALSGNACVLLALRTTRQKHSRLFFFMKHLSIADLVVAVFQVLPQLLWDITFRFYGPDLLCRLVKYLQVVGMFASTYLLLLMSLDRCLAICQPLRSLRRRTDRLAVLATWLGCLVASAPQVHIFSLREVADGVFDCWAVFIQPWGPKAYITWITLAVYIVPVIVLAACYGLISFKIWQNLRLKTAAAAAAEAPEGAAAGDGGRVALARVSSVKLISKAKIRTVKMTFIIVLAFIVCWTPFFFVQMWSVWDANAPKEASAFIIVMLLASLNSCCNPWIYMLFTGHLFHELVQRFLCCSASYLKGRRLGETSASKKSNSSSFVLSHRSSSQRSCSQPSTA
In words: biochemical. The test is classed as cell-based, HEK293-EBNA.
Description: Displacement of [125I]OVTA antagonist from human oxytocin receptor expressed in HEK293-EBNA cells

The target in test [2] is Vasopressin V1a receptor (Homo sapiens, UniProt P37288). The test is described as follows: Displacement of [125I]LVA antagonist from human vasopressin 1a receptor expressed in HEK293-EBNA cells. The test is classed as cell-based. On the technique in general: In a radioligand displacement assay an active substance lowers the binding of a labelled ligand.
Test [3] is filed under the species Homo sapiens. The test is described as follows: Selectivity for human vasopressin V1a receptor over human oxytocin receptor.

Structures are written as SMILES. Some results are limits rather than exact numbers.

Vasopressin V1a receptor, sequence (P37288 whole entry): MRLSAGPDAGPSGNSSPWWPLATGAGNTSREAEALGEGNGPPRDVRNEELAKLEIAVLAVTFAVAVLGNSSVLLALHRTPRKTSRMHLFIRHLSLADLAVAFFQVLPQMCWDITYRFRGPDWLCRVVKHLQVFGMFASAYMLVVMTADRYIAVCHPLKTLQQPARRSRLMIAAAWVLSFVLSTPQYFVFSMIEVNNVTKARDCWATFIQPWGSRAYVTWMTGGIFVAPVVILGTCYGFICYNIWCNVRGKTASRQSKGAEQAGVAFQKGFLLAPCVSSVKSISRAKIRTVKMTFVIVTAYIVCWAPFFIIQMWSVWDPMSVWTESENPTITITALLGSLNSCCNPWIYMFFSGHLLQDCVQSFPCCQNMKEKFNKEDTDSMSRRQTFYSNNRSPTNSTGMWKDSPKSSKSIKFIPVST

The term Ki denotes a dissociation constant, usually derived from enzyme kinetics or from competition with a known ligand. Higher therefore signals lower affinity. For `CCOc1ccc(S(=O)(=O)N(CCC(=O)/N=N/c2c(O)[nH]c3ccccc23)c2ccc(C)cc2)cc1`, the Ki in test [1] and in test [2] was greater than 10000 nM throughout.

For the molecule `Cc1ccc(N(CC(=O)NN=C2C(=O)Nc3ccccc32)S(=O)(=O)c2cccc3ccccc23)cc1`, the Ki in test [1] was 174 nM; in test [2], greater than 10000 nM.

Take `CCOc1ccc(S(=O)(=O)N(CC(=O)N/N=C(\C)c2ccc(O)cc2O)c2ccc(C)cc2)cc1`: the Ki in test [1] and in test [2] was greater than 10000 nM throughout.

For the molecule `CCOc1ccc(S(=O)(=O)N(CC(=O)/N=N/c2c(O)[nH]c3ccc([N+](=O)[O-])cc23)c2ccccc2)cc1`, the Ki in test [1] and in test [2] was greater than 10000 nM in each case.

As for `CCOc1ccc(S(=O)(=O)N(CC(=O)/N=N/c2c(O)[nH]c3ccc(S(=O)(=O)O)cc23)c2ccc(C)cc2)cc1`, the Ki in test [1] and in test [2] was greater than 10000 nM each time.

Turning to `CCOc1ccc(S(=O)(=O)N(CC(=O)N/N=C/c2ccc(N(CC)CC)cc2O)c2ccc(C)cc2)cc1`, the inhibitory constant (Ki) in test [1] and in test [2] was greater than 10000 nM in each case.

For `C/C(=N\NC(=O)CN(c1ccccc1)S(=O)(=O)c1ccccc1)c1ccccc1O`, the Ki is 237 nM in test [1] and greater than 10000 nM in test [2].

`Cc1c(Cl)cccc1NC(=O)CN(c1ccc(Cl)cc1)S(=O)(=O)c1ccccc1`: the values for the Ki in test [1] and in test [2] were 160 nM and greater than 10000 nM, respectively.

For the molecule `CCOc1ccc(S(=O)(=O)N(CC(=O)N2Cc3ccccc3CC2C(N)=O)c2ccc(OC)cc2)cc1` (stereo not given), the Ki in test [1] worked out at 320 nM; in test [2] it was 570 nM. For the same molecule, the Ratio ki in test [3] was 1.8.

On to `Cc1ccc(N(CC(=O)N/N=C2\C(=O)Nc3ccccc32)S(=O)(=O)c2ccc(C#N)cc2)cc1`, for which the Ki stood at 111 nM in test [1] and 6880 nM in test [2]. In addition, in test [3], the Ratio Ki amounted to 62.

For `CCOc1ccc(S(=O)(=O)N(c2ccc(C)cc2)C(CO)C(=O)N/N=C2\C(=O)Nc3ccccc32)cc1` (stereo not given), the Ki was 1380 nM in test [1] and greater than 10000 nM in test [2].

Take `CCOc1ccc(S(=O)(=O)N(CC(=O)N/N=C(\C)c2ccc3ccccc3c2O)c2ccc(C)cc2)cc1`: the Ki in test [1] and in test [2] was greater than 10000 nM throughout.

Take `CCOc1ccc(S(=O)(=O)N(CC(=O)N/N=C2\C(=O)Nc3ccccc32)c2ccc(Cl)cc2)cc1`: the results for the Ki in test [1] and in test [2] were 3.9 nM and 471 nM, respectively. In addition, the Ratio Ki in test [3] stood at 120.

With `CCOc1ccc(S(=O)(=O)N(CC(=O)N/N=C(\C)c2c(O)ccc3ccccc23)c2ccc(C)cc2)cc1`, the Ki in test [1] and in test [2] was greater than 10000 nM each time.

For the molecule `CCCOc1ccc(S(=O)(=O)N(CC(=O)N/N=C2\C(=O)Nc3ccccc32)c2ccc(C)cc2)cc1`, the inhibition constant Ki in test [1] stood at 21 nM; in test [2] it was 3730 nM. Moreover, the Ratio Ki in test [3] turned out to be 175.

Consider `CCOc1ccc(S(=O)(=O)N(CC(=O)N2Cc3ccccc3CC2CC(N)=O)c2ccc(C)cc2)cc1` (stereo not given), for which the Ki in test [2] was found to be 1800 nM. In addition, in test [3], the Ratio Ki stood at 3.6.

Regarding `COc1ccc(N(CC(=O)Nc2ccc(Cl)cc2C)S(=O)(=O)c2ccccc2)cc1`, the Ki in test [1] came to 800 nM; in test [2], 70 nM.

For the molecule `CCOc1ccc(S(=O)(=O)N(CC(=O)N2Cc3ccccc3CC2CC(N)=O)c2ccc(OC)cc2)cc1` (stereo not given), the Ki in test [1] came out at 510 nM; in test [2], 1600 nM. Moreover, in test [3], the Ratio ki is 3.1.

Consider `CCCc1ccc(S(=O)(=O)N(CC(=O)N/N=C2\C(=O)Nc3ccccc32)c2ccc(Cl)cc2)cc1`, for which the Ki amounted to 36 nM in test [1] and 2120 nM in test [2]. For the same molecule, in test [3], the Ratio Ki was determined as 60.

Consider `Cc1ccc(N(CC(=O)/N=N/c2c(O)[nH]c3ccccc23)S(=O)(=O)c2ccc(-c3ccccc3)cc2)cc1`, for which the values for the Ki in test [1] and in test [2] were 104 nM and greater than 10000 nM, respectively. The Ratio Ki in test [3] is greater than 96.

On to `Cc1ccc(N(CC(=O)N2CCc3ccccc3C2)S(=O)(=O)c2ccccc2)cc1`, for which the Ki in test [2] worked out at 325 nM.

Regarding `Cc1ccc(N(CC(=O)/N=N/c2c(O)[nH]c3ccccc23)S(=O)(=O)c2ccc3ccccc3c2)cc1`, the Ki in test [1] is 239 nM; in test [2], greater than 10000 nM. The Ratio Ki in test [3] is greater than 42.

Regarding `Cc1ccc(N(CC(=O)N/N=C2\C(=O)Nc3ccccc32)S(=O)(=O)c2cccc3ccccc23)cc1`, the Ratio Ki in test [3] was greater than 58.

In the case of `O=C(CN(c1ccc(Cl)cc1)S(=O)(=O)c1cccs1)N/N=C1\C(=O)Nc2ccccc21`, the results for the Ki in test [1] and in test [2] were 37 nM and 510 nM, respectively. Further, the Ratio Ki in test [3] worked out at 14.

In the case of `Cc1ccc(N(CC(=O)Nc2cccc(Cl)c2C)S(=O)(=O)c2ccccc2)cc1`, the figures for the Ki in test [1] and in test [2] were 93 nM and greater than 10000 nM, respectively.

As for `CCCOc1ccc(S(=O)(=O)N(CC(=O)N/N=C2\C(=O)Nc3ccccc32)c2ccc(Cl)cc2)cc1`, the Ki in test [1] is 10 nM; in test [2], 1390 nM. Moreover, in test [3], the Ratio Ki was 140.

In test [2], `COC(=O)c1cccc2c1NC(=O)/C2=N\NC(=O)CN(c1ccc(Cl)cc1)S(=O)(=O)c1ccc(OCCCN(C)C)cc1` showed a Ki of 1290 nM. Moreover, the Ratio Ki in test [3] came to 12.

Regarding `CCOc1ccc(S(=O)(=O)N(CC(=O)/N=N/c2c(O)[nH]c3ccc(I)cc23)c2ccccc2)cc1`, the Ki in test [1] and in test [2] was greater than 10000 nM each time.

Consider `COc1ccc(S(=O)(=O)N(CC(=O)N/N=C2/C(=O)Nc3ccccc32)c2ccc(C)cc2)cc1`, for which the Ki was 20 nM in test [1] and 437 nM in test [2].

Regarding `CCC(C)(C)c1ccc(S(=O)(=O)N(CC(=O)N/N=C2\C(=O)Nc3ccccc32)c2ccc(Cl)cc2)cc1`, the Ki in test [1] is 1750 nM; in test [2] it was greater than 10000 nM.

For the molecule `CCOc1ccc(S(=O)(=O)N(c2ccc(C)cc2)C(C)C(=O)N/N=C2\C(=O)Nc3ccccc32)cc1` (stereo not given), the Ki was 448 nM in test [1] and greater than 10000 nM in test [2].

For the molecule `COc1ccc(S(=O)(=O)N(CC(=O)N/N=C2\C(=O)Nc3ccccc32)c2ccc(C)cc2)cc1`, the Ratio Ki in test [3] was determined as 22.

As to `CCOc1ccc(S(=O)(=O)N(CC(=O)N/N=C/c2ccccn2)c2ccc(Cl)cc2)cc1`, the inhibitory constant (Ki) was found to be 2750 nM in test [1] and 1860 nM in test [2]. In test [3], the Ratio Ki was determined as 0.67.

As to `CCCCOc1ccc(S(=O)(=O)N(CC(=O)N/N=C2\C(=O)Nc3ccccc32)c2ccc(Cl)cc2)cc1`, the Ki in test [1] was determined as 18 nM; in test [2], 3980 nM. For the same molecule, the Ratio Ki in test [3] came out at 230.

`CCOc1ccc(S(=O)(=O)N(CC(=O)/N=N/c2c(O)[nH]c3ccccc23)c2ccccc2)cc1`: the Ki in test [1] was 36 nM; in test [2], greater than 10000 nM. Further, the Ratio Ki in test [3] is greater than 275.

Take `CCOc1ccc(S(=O)(=O)N(CC(=O)N/N=C/c2ncc[nH]2)c2ccc(Cl)cc2)cc1`: the Ki in test [1] and in test [2] was greater than 10000 nM in each case.

With `COc1ccc(S(=O)(=O)N(CC(=O)/N=N/c2c(O)[nH]c3ccccc23)c2ccc(Cl)cc2)cc1OC`, the Ki in test [1] worked out at 18 nM; in test [2] it was 596 nM. Moreover, the Ratio Ki in test [3] is 33.

For `CCOc1ccc(S(=O)(=O)N(CC(=O)N/N=C/c2ccccc2N)c2ccc(C)cc2)cc1`, the Ki in test [1] and in test [2] was greater than 10000 nM each time.

As to `CC(C)(C)c1ccc(S(=O)(=O)N(CC(=O)N/N=C2/C(=O)Nc3ccccc32)c2ccc(Cl)cc2)cc1`, the figures for the Ki in test [1] and in test [2] were 61 nM and 4940 nM, respectively. Moreover, the Ratio Ki in test [3] was found to be 80.

As to `O=C(CN(c1ccc(Cl)cc1)S(=O)(=O)c1ccccc1)N/N=C1\C(=O)Nc2ccccc21`, the figures for the Ki in test [1] and in test [2] were 8.7 nM and 611 nM, respectively. Also, in test [3], the Ratio Ki was determined as 70.

Turning to `COc1ccc(N(CC(=O)N2CCc3ccccc3C2)S(=O)(=O)c2ccccc2)cc1`, the Ki in test [1] is 160 nM; in test [2] it was 115 nM.

With `CCOc1ccc(S(=O)(=O)N(CC(=O)N2Cc3ccccc3C2C(N)=O)c2ccc(OC)cc2)cc1` (stereo not given), the results for the Ki in test [1] and in test [2] were 770 nM and 1600 nM, respectively. The Ratio Ki in test [3] was 2.1.

Turning to `CCOc1ccc(S(=O)(=O)N(CC(=O)N/N=C/c2ccccc2NC(C)=O)c2ccc(C)cc2)cc1`, the Ki in test [1] and in test [2] was greater than 10000 nM throughout.

Regarding `CCOc1ccc(S(=O)(=O)N(CC(=O)N/N=C/c2ccccc2O)c2ccc(Cl)cc2)cc1`, the Ki worked out at 15 nM in test [1] and 650 nM in test [2]. The Ratio Ki in test [3] was found to be 43.

As to `CN(C)CCCOc1ccc(S(=O)(=O)N(CC(=O)N/N=C2\C(=O)N(CC(N)=O)c3ccccc32)c2ccc(Cl)cc2)cc1`, the Ki in test [1] was found to be 322 nM; in test [2], 1100 nM. In test [3], the Ratio Ki amounted to 3.

On to `CCOc1ccc(N(CC(=O)Nc2cccc(Cl)c2C)S(=O)(=O)c2ccccc2)cc1`, for which the Ki in test [1] and in test [2] was greater than 10000 nM throughout.

As to `C/C(=N\NC(=O)CN(c1cccc(Cl)c1)S(=O)(=O)c1ccccc1)c1ccccc1O`, the Ki in test [1] stood at 4900 nM; in test [2] it was 600 nM.

Consider `CCOc1ccc(S(=O)(=O)N(CC(=O)N/N=C/c2ccccc2O)c2ccc(C)cc2)cc1`, for which the Ki turned out to be 60 nM in test [1] and 3210 nM in test [2]. Also, in test [3], the Ratio Ki was 54.

As for `CN(C)CCCOc1ccc(S(=O)(=O)N(CC(=O)/N=N/c2c(O)[nH]c3c(C(=O)O)cccc23)c2ccc(Cl)cc2)cc1`, the Ki in test [1] and in test [2] was greater than 10000 nM throughout.

In the case of `COc1ccc(-c2ccc(S(=O)(=O)N(CC(=O)/N=N/c3c(O)[nH]c4ccccc34)c3ccc(C)cc3)cc2)cc1`, the Ki in test [1] was greater than 214 nM; in test [2] it was greater than 10000 nM. Also, the Ratio Ki in test [3] is greater than 47.

For `COc1ccc(N(CC(=O)Nc2cccc(Cl)c2C)S(=O)(=O)c2ccccc2)cc1`, the figures for the Ki in test [1] and in test [2] were 100 nM and 300 nM, respectively.
